This note sets out measurements from patent US7592326B2, “Method for stimulating the immune, inflammatory or neuroprotective response” (priority 2004, dated 2009).

The format of data set [1] is in vitro ADME, human. The procedure:
Commercially supplied pooled human serum (100 uL) (Cambrex Bio Science Walkersville, Inc.) was diluted in ion-exchanged water. An aliquot of the resulting human serum solution was subjected to HPLC analysis (conditions: COSMOSIL 5C18-AR-II column (4.6×200 mm); buffer A; buffer B, 80% acetonitrile in water; gradient, 0-10 min A 100%, 10-60 min A:B=100:0 to A:B=40:60 in 50 min; detection 254 nm, flow rate, 1.0 mL/min, temperature 40° C.). Separately, a 100 uM of c-di-GMP solution in human serum was prepared by adding 100 uL of a 500 uM c-di-GMP aqueous solution to a mixture of 390 uL of human serum and 10 uL of 40 mM 2-methylbenzimidazole (an internal standard for estimating the extent of decomposition of c-di-GMP) in methanol. An aliquot of the test solution was diluted immediately after the preparation solution and then heated at 100° C. for 5 min to quench activity of enzymes. The resulting test sample was subjected to HPLC analysis after 24 h treatment. Peaks that appeared in both analyses were compared. Results are based on 3 independent experiments.

In data set [2] the test system is TLR1/2, TLR3, TLR4/MD2, TLR5, TLR2/6, TLR7, TLR8, and TLR9. As to the kind of experiment: HEK cells stably transfected with TLRs, IL-8 transcripts by QPCR. It counts as cell-based, human. As to conditions: 200 uM, 3 hours. The procedure:
To test this hypothesis, human embryonic kidney (HEK) cells, which are normally unresponsive to TLR ligand stimulation, were stably transfected with TLR1/2, TLR3, TLR4/MD2, TLR5, TLR2/6, TLR7, TLR8, and TLR9. HEK 293 cells were cultured in Dulbecco's modified Eagle's medium supplemented with 10% fetal bovine serum. Cells were plated in 24-well tissue culture plates (1×10^5 cells/well) and maintained in the above medium for 24 h. The following day, cells were either left untreated or incubated with the indicated amount of TLR ligand. After the 3 hour treatment period, cells were harvested for total RNA using the Qiagen RNeasy kit per the manufacturer's protocol. The total RNA was converted to cDNA and QPCR was performed to determine the number of copies of IL-8.

For another data set, the system named is ERK. Kind of data set: Western blot signaling in human macrophages: ERK. It counts as cell-based. The protocol: Preparation of macrophages was performed as previously described (Akagawa et al., 1996). Briefly, fully differentiated macrophages from human PBMC were isolated from leukapheresis preparations obtained by the Blood Bank, Clinical Center, National Institutes of Health, Bethesda, Md. The leukocyte-rich preparation was overlaid on Accu-prep in 50 ml tubes and the tubes were centrifuged at 800 × g for 20 min at room temperature. PBMC fractions were collected, washed once with PBS at room temperature and twice with complete medium at 4° C. and resuspended in the same medium. Monocytes were further purified by using iso-osmotic Percoll gradient (Amersham Biosciences). At this stage, the purity of monocytes was higher than 90%. One and half million cells were placed on a 12-well plate in 1.5 ml RPMI1640 containing 50 ng/ml human M-CSF. On day 4, 1 ml of the medium was replaced with 1 ml of fresh medium containing 50 ng human M-CSF. On day 7, non-adherent cells were washed out and adherent cells were used as macrophages.
Western blot analysis of macrophages was performed as previously described (Matsuyama et al., 2003). Briefly, prepared macrophages were starved in RPMI 1640 without FCS for 10 h. Cells were rinsed three times with PBS, and treated with cyclic dinucleotide for various times. Cells were lysed on ice for 20 min in a buffer containing 50 mM NaCl, 20 mM Tris-HCl, 50 mM sodium fluoride, 30 mM Na4P207, 5 mM EGTA, 3 mM sodium orthovanadate, 1% Triton X-100, 1 mg/ml leupeptin, 1 mM PMSF, 1 mg/ml aprotinin, 1 mg/ml pepstatin A and 100 mM sodium orthovanadate pre-treated with H202. The lysates were spun in a microcentrifuge for 20 min and the supernatants were collected. Proteins were analyzed on 12% polyacrylamide gels by SDS-PAGE and transferred electrophoretically to nitrocellulose membranes at 150 mA for 1 h in a semi-dry system. The membranes were incubated with an antibody against either phosphorylated or nonphosphorylated p38 MAP kinase or ERK, followed by an appropriate secondary Ab coupled with horseradish peroxidase. […]
On the technique in general: In western blotting, separated proteins are transferred to a membrane and probed.

In a further data set the test system is immature DCs. As to the kind of experiment: Surface phenotype of DCs exposed to c-di-GMP (flow cytometry). It counts as cell-based, human. The protocol: Peripheral blood mononuclear cells (PBMC) were isolated by Ficoll-Hypaque gradient separation of buffy coats obtained from healthy volunteer blood donors by the Transfusion Center of Università Degli Studi “La Sapienza” Rome. DCs were generated from monocytes purified from PBMC by positive selection using magnetic cell separation columns and CD14 Microbeads. Highly enriched monocytes (>95% CD14^+) were cultured at 6×10^5/ml in RPMI 1640 medium supplemented with 15% heat-inactivated fetal calf serum (FCS), L-glutamine and penicillin-streptomycin and 250 ng/ml granulocyte macrophage-colony stimulating factor (GM-CSF) and 500 U/ml interleukin (IL)-4 at 37° C. for 5 days. Differentiation to DC was assessed both by morphologic observation and the detection of specific surface markers by flow cytometry. These cells were CD14^−, CD1a^+, HLA-DR^intermediate, HLA-ABC^intermediate CD80^low, CD86^low consistent with an immature DC phenotype. Untreated immature DCs were used as controls. […] LPS-treated DCs became stimulated/activated and produced CD83^+, HLA-DR^high, HLA-ABC^high consistent with a mature DC phenotype. […] Experiments using trypan blue exclusion tests were always performed in order to exclude any aspecific toxicity of c-di-GMP. NaCl (0.9%) used to resuspend the compound was always included as control. Cell staining was performed using mouse monoclonal antibodies FITC- or PE-conjugate. The following mAbs were used: CD14 (IgG1, PE), CD1a (IgG1, FITC), HLA-DR (IgG2a, FITC), HLA-ABC (IgG1, FITC), CD80 (IgG1, FITC), CD86 (IgG1, FITC); CD83 (IgG2b, PE), CXCR4 (IgG2aPE), CCR5 (IgG2a, FITC), CD32 (IgG2b, FITC). CD40, CCR7 and mannose receptor (MR) staining was performed using mouse mAb followed by FITC-conjugated affinity purified, isotype-specific goat anti-mouse Abs. Samples were analyzed using a FACScan flow cytometer and CellQuest software (Becton Dickinson). To investigate whether c-di-GMP induced phenotypic differentiation of human DCs, immature and mature DCs were cultured with c-di-GMP for 24 h and then analyzed for surface molecule expression.

Regarding `Nc1nc(=O)c2ncn([C@@H]3OC4COP(=O)(O)O[C@H]5[C@@H](O)[C@H](n6cnc7c(=O)nc(N)[nH]c76)O[C@@H]5COP(=O)(O)OC4C3O)c2[nH]1` (stereo partly drawn) [c-di-GMP, Bis(3′→5′)-cyclic diguanylic acid], in data set [1], the “stability in human serum” value was “stable”. The “stimulation of LPS-sensitive MD2/TLR4-HEK cell line” value in data set [2] is reported as “failed to stimulate”. Also, the “activation of TLR expressing HEK cell lines (IL-8 transcripts)” value in data set [2] (FIG. 14) is recorded as “none of the TLR expressing cell lines were activated”. In the data set with ERK (10- and 100 uM, human macrophages, FIG. 13B), the ERK phosphorylation result was “activate”. In the data set on ERK (absent at 20 min), the “time of peak ERK phosphorylation” value stood at 5 min. In addition, the “magnitude of ERK phosphorylation relative to LPS” value in the data set with ERK (under the conditions tested) is recorded as “weaker”. For the same compound, the “effect in dose-response titration on DCs” value is reported as “No effect” with immature DCs (0.5 μM c-di-GMP) and “inconsistent results” in the data set with immature DCs (200 μM c-di-GMP). For the same compound, the LPS-induced maturation entry in the data set on immature DCs (DCs with LPS, data not shown) is recorded as “did not interfere”. Also, the “surface expression of CD1a, HLA-ABC, CCR5 and CD40” value in the data set on immature DCs (data not shown) is recorded as “did not affect”. For the same compound, the “expression of chemokine receptor CXCR4” value in the data set with immature DCs (immature DCs, 24 h, FIG. 1C) was “significantly increased”. The “expression of chemokine receptor CCR7” value in the data set on immature DCs (immature DCs, 24 h, FIG. 1D) was “significantly increased”. In addition, the “expression of CD86 (B7-2) (percentage of positive cells)” value with immature DCs (immature DCs, 24 h, FIG. 1F) is “up-regulated”. Besides, the CD32 expression result in the data set with immature DCs (immature DCs, 24 h, FIG. 1H) is on record as “not affected”. In addition, the “expression of CD83 (mean fluorescence)” value with immature DCs (immature DCs, 24 h, dose-dependent, no effect at high concentrations, FIG. 1B) was “slightly up-regulated”. Also, in the data set with immature DCs (immature DCs, 24 h, dose-dependent, FIG. 1E), the “expression of CD80 (B7-1)” value is “slightly increased”. Also, in the data set on immature DCs (immature DCs, 24 h, dose-dependent, FIG. 1G), the “expression of mannose receptor (MR) (mean fluorescence)” value is listed as “reduced”. Moreover, the “expression of HLA-DR (MFI, percentage of positive cells)” value in the data set with immature DCs (immature DCs, c-di-GMP 5, 50, 100 μM, 24 h, FIG. 1A) is given as “up-regulated”.
